In paper PMC9571063 (Molecules, 2022) one finds IC50 and remaining activity data, which are given here for 2 compounds.

SMILES strings stand for the structures. Counter-ions that a name gives are not always drawn. Like-named read-outs stand apart in the source and are kept apart here.

The nature of data set [1]: cytotoxic assay, nuclei count (Hoechst, HCS). The format is cell-based. Conditions: human, MCF7 cells (breast carcinoma); 48 h treatment; read-out: Cytotoxic studies IC50 MCF7.
The target in a further data set is T1, Hs_GSK3β (Homo sapiens, UniProt P49841).
T1 construct: host or cells: Sf9 insect cells (baculovirus)
In words: ADP-Glo kinase assay, primary screen. Format: biochemical. Conditions: n=2, read-out: % of residual activity Hs_GSK3β. (In general: ADP-Glo first removes unused ATP, then detects ADP through luciferase.)

Another data set has as its target T2, Hs_CDK9/CyclinT (Homo sapiens, UniProt P50750).
T2 construct: host or cells: Sf9 insect cells (baculovirus)
In words: ADP-Glo kinase assay, primary screen. The format is biochemical. The conditions noted are these: n=2, read-out: % of residual activity Hs_CDK9/CyclinT.

A further data set concerns the target T3, HsDYRK1A (Homo sapiens, UniProt Q13627).
T3 construct: host or cells: Sf9 insect cells (baculovirus)
In words: ADP-Glo kinase assay. The conditions noted are these: for remaining activity at 1 µM / remaining activity at 10 µM: n=2, read-out: % of residual activity Hs_DYRK1A; for IC50: 10 µM ATP, duplicate. The format is biochemical.

Another data set deals with T4, Hs_CDK5/p25 (Homo sapiens, UniProt Q00535).
T4 construct: host or cells: bacteria
The data set can be described thus: ADP-Glo kinase assay, primary screen. The format is biochemical. The conditions noted are these: n=2, read-out: % of residual activity Hs_CDK5/p25.

Data set [2] is described as follows: cytotoxic assay, nuclei count (Hoechst, HCS). Format: cell-based. The conditions noted are these: human, HuH7 cells (hepatocellular carcinoma); 48 h treatment; read-out: Cytotoxic studies IC50 HuH7.
A further data set has as its target T5, MmCLK1 (Mus musculus, UniProt P22518).
T5 construct: host or cells: bacteria
The data set can be described thus: ADP-Glo kinase assay. The format is biochemical. Conditions: for remaining activity at 1 µM / remaining activity at 10 µM: n=2, read-out: % of residual activity Mm_CLK1; for IC50: mouse CLK1 orthologue, read-out: IC50 MmCLK1.

A further data set concerns the target T6, Hs_HASPIN (Homo sapiens, UniProt Q8TF76).
T6 construct: host or cells: bacteria
T6 sequence (Q8TF76 1-798): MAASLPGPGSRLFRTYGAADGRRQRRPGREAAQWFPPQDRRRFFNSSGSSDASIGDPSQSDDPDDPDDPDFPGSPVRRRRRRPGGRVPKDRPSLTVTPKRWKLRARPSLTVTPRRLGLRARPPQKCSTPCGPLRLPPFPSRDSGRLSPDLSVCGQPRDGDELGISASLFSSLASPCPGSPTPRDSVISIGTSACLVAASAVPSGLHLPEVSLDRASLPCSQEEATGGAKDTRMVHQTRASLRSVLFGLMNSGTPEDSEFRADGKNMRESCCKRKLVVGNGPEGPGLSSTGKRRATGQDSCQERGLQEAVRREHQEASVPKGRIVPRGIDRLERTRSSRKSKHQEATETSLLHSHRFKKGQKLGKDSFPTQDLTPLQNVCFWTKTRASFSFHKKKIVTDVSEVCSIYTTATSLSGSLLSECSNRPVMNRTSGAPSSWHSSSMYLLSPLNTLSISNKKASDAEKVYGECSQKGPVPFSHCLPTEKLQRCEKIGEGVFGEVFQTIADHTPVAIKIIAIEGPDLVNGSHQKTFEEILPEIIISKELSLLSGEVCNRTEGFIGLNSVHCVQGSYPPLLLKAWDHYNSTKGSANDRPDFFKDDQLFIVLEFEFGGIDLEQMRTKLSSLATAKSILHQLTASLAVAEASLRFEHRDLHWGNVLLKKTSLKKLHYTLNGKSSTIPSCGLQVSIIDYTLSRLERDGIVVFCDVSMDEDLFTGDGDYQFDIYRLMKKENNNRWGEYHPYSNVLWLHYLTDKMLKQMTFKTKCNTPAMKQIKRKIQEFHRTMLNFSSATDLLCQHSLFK
The data set can be described thus: ADP-Glo kinase assay, primary screen. Format: biochemical. Conditions: n=2, read-out: % of residual activity Hs_HASPIN.

A short description of data set [3]: cytotoxic assay, nuclei count (Hoechst, HCS). Format: cell-based, human. The conditions noted are these: human, human skin fibroblasts (non-cancerous reference cells); 48 h treatment; some cells add low/moderate/high amplitude; read-out: Cytotoxic studies IC50 Fibroblasts.
The target of another data set is T7, HsCLK1 (Homo sapiens, UniProt P49759).
T7 construct: host or cells: Sf9 insect cells (baculovirus)
In words: ADP-Glo kinase assay. The conditions noted are these: 10 µM ATP, duplicate; read-out: IC50 HsCLK1. Format: biochemical.

For the next data set, the target named is T8, Hs_CK1ε (Homo sapiens, UniProt P49674).
T8 construct: host or cells: Sf9 insect cells (baculovirus)
The data set can be described thus: ADP-Glo kinase assay, primary screen. Format: biochemical. The conditions noted are these: n=2, read-out: % of residual activity Hs_CK1ε.

The nature of data set [4]: cytotoxic assay, nuclei count (Hoechst, HCS). Format: cell-based. Conditions: human, MDA-MB-231 cells (breast carcinoma); 48 h treatment; read-out: Cytotoxic studies IC50 MDA-MB-231.
A short description of data set [5]: cytotoxic assay, nuclei count (Hoechst, HCS). The conditions noted are these: human, Caco-2 cells (colorectal adenocarcinoma); 48 h treatment; read-out: Cytotoxic studies IC50 Caco2. Format: cell-based.
The target in another data set is T9, Rn_DYRK1A (Rattus norvegicus, UniProt Q63470).
T9 construct: host or cells: bacteria
The data set can be described thus: ADP-Glo kinase assay, primary screen. Format: biochemical. Conditions: n=2, read-out: % of residual activity Rn_DYRK1A.

T1 sequence (P49841 whole entry): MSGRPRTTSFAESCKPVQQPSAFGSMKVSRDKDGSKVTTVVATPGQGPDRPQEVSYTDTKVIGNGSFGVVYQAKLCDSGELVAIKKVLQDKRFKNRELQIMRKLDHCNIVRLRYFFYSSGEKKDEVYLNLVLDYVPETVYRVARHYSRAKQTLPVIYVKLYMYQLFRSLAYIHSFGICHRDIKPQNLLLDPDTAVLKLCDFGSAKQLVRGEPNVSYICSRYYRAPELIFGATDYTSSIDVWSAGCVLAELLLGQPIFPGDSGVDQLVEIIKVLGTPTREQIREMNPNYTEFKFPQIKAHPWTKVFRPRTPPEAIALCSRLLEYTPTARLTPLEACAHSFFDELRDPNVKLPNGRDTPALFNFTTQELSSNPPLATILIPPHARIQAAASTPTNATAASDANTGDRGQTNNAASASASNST
T4 sequence (Q00535 whole entry): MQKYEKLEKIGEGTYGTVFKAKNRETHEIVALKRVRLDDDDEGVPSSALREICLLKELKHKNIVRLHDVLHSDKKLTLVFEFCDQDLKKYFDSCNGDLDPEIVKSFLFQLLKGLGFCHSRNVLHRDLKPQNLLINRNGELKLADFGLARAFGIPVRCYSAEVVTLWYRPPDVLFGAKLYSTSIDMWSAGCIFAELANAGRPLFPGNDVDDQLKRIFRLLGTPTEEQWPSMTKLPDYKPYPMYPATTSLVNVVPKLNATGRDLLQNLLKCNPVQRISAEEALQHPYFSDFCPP
T4 sequence (Q15078 99-307 partner limits assumed): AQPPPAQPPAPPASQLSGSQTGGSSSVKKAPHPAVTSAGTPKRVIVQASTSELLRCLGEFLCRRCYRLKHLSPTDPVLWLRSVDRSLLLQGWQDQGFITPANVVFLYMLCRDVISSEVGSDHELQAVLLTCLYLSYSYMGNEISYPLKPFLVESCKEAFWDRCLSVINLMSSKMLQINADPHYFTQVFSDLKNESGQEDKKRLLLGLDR
T8 sequence (P49674 whole entry): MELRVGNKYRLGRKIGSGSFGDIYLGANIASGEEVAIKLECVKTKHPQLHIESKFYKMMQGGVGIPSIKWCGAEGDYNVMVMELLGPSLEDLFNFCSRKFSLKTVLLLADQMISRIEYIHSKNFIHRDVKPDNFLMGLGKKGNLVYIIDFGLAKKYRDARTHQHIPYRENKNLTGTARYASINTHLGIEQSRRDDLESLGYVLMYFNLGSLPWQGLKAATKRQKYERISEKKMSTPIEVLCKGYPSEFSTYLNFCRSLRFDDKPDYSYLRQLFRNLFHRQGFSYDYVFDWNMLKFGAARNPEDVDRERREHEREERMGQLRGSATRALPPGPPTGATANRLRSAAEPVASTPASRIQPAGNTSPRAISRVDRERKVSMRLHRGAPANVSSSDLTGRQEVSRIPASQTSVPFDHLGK
T5 sequence (P22518 whole entry): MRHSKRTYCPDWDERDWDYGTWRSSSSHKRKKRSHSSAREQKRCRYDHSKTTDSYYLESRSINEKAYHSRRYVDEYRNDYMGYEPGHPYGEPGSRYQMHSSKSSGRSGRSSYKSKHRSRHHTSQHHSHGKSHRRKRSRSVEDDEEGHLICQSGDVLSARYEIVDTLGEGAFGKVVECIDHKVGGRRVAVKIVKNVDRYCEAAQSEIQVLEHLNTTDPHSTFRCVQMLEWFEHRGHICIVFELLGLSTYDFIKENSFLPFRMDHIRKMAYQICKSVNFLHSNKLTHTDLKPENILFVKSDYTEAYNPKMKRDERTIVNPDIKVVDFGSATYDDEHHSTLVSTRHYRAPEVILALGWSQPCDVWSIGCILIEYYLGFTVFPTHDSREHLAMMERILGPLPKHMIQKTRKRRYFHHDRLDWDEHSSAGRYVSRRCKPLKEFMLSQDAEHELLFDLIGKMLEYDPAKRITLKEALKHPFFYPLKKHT
T2 sequence (P50750 whole entry): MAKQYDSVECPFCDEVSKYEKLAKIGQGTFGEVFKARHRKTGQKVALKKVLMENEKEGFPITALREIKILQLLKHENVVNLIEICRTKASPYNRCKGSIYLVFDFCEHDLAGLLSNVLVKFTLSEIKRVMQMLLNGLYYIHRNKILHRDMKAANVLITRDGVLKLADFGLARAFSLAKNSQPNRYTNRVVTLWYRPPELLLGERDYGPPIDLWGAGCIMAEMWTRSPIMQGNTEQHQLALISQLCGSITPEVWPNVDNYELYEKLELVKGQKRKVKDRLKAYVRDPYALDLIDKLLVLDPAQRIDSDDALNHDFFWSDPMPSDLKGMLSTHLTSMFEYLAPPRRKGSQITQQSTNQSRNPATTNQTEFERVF
T2 sequence (O60563 whole entry partner): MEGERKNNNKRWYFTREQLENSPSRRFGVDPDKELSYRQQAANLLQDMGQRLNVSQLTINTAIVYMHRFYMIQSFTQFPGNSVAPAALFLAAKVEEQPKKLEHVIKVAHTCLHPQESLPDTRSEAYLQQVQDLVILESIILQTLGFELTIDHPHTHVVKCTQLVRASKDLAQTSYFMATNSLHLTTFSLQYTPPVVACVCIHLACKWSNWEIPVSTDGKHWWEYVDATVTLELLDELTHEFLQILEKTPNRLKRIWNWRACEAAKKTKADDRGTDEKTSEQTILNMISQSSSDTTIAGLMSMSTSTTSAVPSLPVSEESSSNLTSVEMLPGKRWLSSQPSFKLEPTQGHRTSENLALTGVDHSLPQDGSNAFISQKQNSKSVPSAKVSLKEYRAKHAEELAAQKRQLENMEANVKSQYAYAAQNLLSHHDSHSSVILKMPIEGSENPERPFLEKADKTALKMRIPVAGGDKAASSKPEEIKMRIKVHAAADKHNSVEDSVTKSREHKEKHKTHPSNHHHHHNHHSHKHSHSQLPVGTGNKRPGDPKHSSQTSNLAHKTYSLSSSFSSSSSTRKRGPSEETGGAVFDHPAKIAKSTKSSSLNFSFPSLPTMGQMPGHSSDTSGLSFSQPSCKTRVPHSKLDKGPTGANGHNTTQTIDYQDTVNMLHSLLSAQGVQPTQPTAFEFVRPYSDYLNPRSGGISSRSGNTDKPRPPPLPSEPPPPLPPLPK
T7 sequence (P49759 whole entry): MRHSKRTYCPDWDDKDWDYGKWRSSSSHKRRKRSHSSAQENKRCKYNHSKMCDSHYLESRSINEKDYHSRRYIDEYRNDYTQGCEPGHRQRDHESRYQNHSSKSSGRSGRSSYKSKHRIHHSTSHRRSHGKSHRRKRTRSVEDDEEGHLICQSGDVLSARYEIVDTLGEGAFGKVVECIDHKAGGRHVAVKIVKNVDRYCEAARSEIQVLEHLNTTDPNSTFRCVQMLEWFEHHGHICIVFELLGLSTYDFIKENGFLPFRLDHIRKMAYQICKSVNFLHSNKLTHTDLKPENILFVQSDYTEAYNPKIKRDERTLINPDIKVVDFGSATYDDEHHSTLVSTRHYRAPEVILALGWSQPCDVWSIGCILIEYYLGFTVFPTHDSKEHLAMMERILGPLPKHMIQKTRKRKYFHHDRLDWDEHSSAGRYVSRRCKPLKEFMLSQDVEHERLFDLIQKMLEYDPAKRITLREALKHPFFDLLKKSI

The IC50 is the concentration at which inhibition is half-maximal. Regarding `O=C(O)c1ccc(-n2cc(COc3cccc4cnc(Nc5cccc(Cl)c5)nc34)nn2)c([N+](=O)[O-])c1` [12g, 4-(4-(((2-((3-Chlorophenyl)amino)quinazolin-8-yl)oxy)methyl)-1H-1,2,3-triazol-1-yl)-3-nitrobenzoic acid], the IC50 at 48 h in data set [1], in data set [2], in [3], in data set [4] and in data set [5] was more than 25 µM each time. Further, the remaining activity at 1 µM on Hs_GSK3β was found to be 76%; at Hs_CDK9/CyclinT, 38%; on HsDYRK1A it was 86%; on Hs_CDK5/p25, 45%; at MmCLK1 it was 13%; on Hs_HASPIN, 75%. The figures for the remaining activity at 1 µM on Hs_CK1ε and at Rn_DYRK1A were 98% and 61%, respectively. For the same compound, the remaining activity at 10 µM at Hs_GSK3β stood at 19%; at Hs_CDK9/CyclinT it was 21%; at HsDYRK1A, 50%; on Hs_CDK5/p25 it was 97%; at MmCLK1, 5%; on Hs_HASPIN it was 69%. In addition, the remaining activity at 10 µM was determined as 72% on Hs_CK1ε and 39% on Rn_DYRK1A. The results for the IC50 at HsDYRK1A, on MmCLK1 and on HsCLK1 were 3.94 µM, 0.024 µM and 0.004 µM, respectively.
As for `N[C@H]1CC[C@@H](n2cc(COc3cccc4cnc(Nc5cc(Cl)cc(Cl)c5)nc34)nn2)CC1` [16b, 8-((1-((cis)-4-Aminocyclohexyl)-1H-1,2,3-triazol-4-yl)methoxy)-N-(3,5-dichlorophenyl)quinazolin-2-amine hydrochloride], the half-inhibitory concentration (IC50) at 48 h in data set [1] amounted to 3 µM; in [2], 2 µM; in data set [3], 2 µM; in data set [4], 2 µM; in data set [5], 3 µM. The remaining activity at 1 µM on Hs_GSK3β stood at 47%; at Hs_CDK9/CyclinT it was 61%; on HsDYRK1A, 85%; on Hs_CDK5/p25 it was 87%; on MmCLK1, 19%; at Hs_HASPIN, 76%. The remaining activity at 1 µM on Hs_CK1ε came to 82%; at Rn_DYRK1A it was 71%. In addition, the remaining activity at 10 µM on Hs_GSK3β came to 8%; on Hs_CDK9/CyclinT, 18%; on HsDYRK1A it was 38%; on Hs_CDK5/p25, 44%; at MmCLK1, 8%; at Hs_HASPIN, 76%. For the same compound, the remaining activity at 10 µM at Hs_CK1ε came out at 24%; on Rn_DYRK1A, 20%. In addition, the values for the IC50 against HsDYRK1A, on MmCLK1 and on HsCLK1 were 1.9 µM, 0.18 µM and 0.053 µM, respectively.
